# Measurements reported in US20130315981A1, “METHOD FOR INDUCING FAT LOSS IN MAMMALS” (The Trustees of Columbia University in the City of New York, priority 2010, published 2013).
# Experiments:
# [1] = test system: ATMs in perigonadal adipose tissue; test: CL316,243 treatment of lean mice: ATM content in perigonadal adipose tissue; type: in vivo, C57BL/6J mice
# Procedure: Ten 8-week-old C57BL/6J mice fed the standard pellet diet (see above) were injected intraperitoneally with 1 mg/kg of CL316,243 or saline twice (4 hours between each injection). Mice were sacrificed 14 hours after the second injection. Perigonadal adipose tissue was excised and samples were stored as described above.
# Adipose tissue samples were fixed for 48 hours at room temperature in zinc-formalin fixative (Anatech Ltd.), incubated in 70% ethanol for 24 hours, and subsequently embedded in paraffin. […] For each individual adipose tissue depot, 5-10 different high-power fields from each of 3 different sections were analyzed. The total number of nuclei and the number of nuclei of F4/80-expressing cells were counted for each field. The fraction of F4/80-expressing cells for each sample was calculated as the sum of the number of nuclei of F4/80-expressing cells divided by the total number of nuclei in sections of a sample. Cross-sectional area was determined for each adipocyte in each field using image analysis software Image-Pro Plus (Media Cybernetics Inc.). For each mouse, 800-1000 adipocytes were counted. Adipocyte number was calculated from fat pad weight and adipocyte volume (48). […] For each individual adipose tissue depot, 10 different high-power fields from each of 3 different sections were analyzed. […]
# [2] = test system: perigonadal adipose tissue explants; test: Lipolysis (FFA release) of perigonadal adipose tissue explants with isoproterenol; type: cell-based, C57BL/6J mice; design: dose or concentration left out as unconfirmed; details: explants from lean ad libitum-fed mice
# Procedure: Perigonadal fat pads were surgically removed from high-fat-fed C57BL/6J mice (n=5/group), which were either ad libitum fed or were undergoing caloric restriction. Subsequently, they were washed several times with PBS. Tissue pieces (−100 mg total weight) were incubated in DMEM (Invitrogen) containing 2% fatty acid-free BSA (Sigma-Aldrich) at 37° C. Aliquots were collected after 120 minutes and investigated for FFA and glycerol content. FFA and glycerol were measured using the HR NEFA series (Wako Diagnostics) and the free glycerol determination kit (Sigma-Aldrich), respectively. We measured adipocyte numbers in parallel samples from weight- and fat-matched ad libitum-fed and calorically restricted mice.
# (§1) Explant-conditioned media, plain media, or media containing recombinant MCP-1 (50 ng/ml) (PeproTech) were added into the lower chamber. To obtain explant-conditioned media, explants were isolated from lean 10-week-old C57BL/6J mice that were ad libitum fed or fasted for 24 hours. […] Explant FFA content was evaluated using the HR NEFA series (Wako Diagnostics). […] At the end of the incubation, cells were detected by a green fluorescent dye (CyQUANT dye) included in the assay. Fluorescence intensity was measured with the Infinite 500 (Tecan). Cell numbers were determined based on fluorescence readings and a standard curve.
# [3] = test system: stromal vascular cells (SVCs); test: Co-culture of SVCs with adipose tissue with or without isoproterenol; type: cell-based, C57BL/6J mice
# Procedure: RNA was isolated from SVCs using the QIAGEN RNeasy Minikit (QIAGEN) and used as template for cDNA synthesis using Superscript III reverse transcriptase (Invitrogen) and random hexamer primers. Quantitative RT-PCR assays were carried out using DNA Engine Opticon 2 system instruments (Bio-Rad) and PCR SYBR Green I QuantiTect Master Mix (QIAGEN). The mRNA expression of all genes reported is normalized to the cyclophilin B (Ppib) gene expression. Every reaction was performed in duplicate, and the data were analyzed with the 2-DDCT method (49). To isolate SVCs, perigonadal adipose tissue was isolated from high-fat diet-induced obese C57BL/6J male mice immediately after CO2 asphyxiation. Tissues were handled using sterile techniques and minced into fine (<10 mg) pieces. For SVC isolation, minced samples were placed in DMEM (Invitrogen) supplemented with 10 mg/ml BSA (Sigma-Aldrich). An LPS-depleted collagenase cocktail (Liberase 3; Roche Applied Science) at a concentration of 0.03 mg/ml was added to the tissue suspension, and the samples were incubated at 37° C. on an orbital shaker (200 g) for 45 minutes. Once digestion was complete, samples were passed through a sterile 250-mm nylon mesh (Sefar America Inc.). The suspension was centrifuged at 500 g for 5 minutes. The pelleted cells were collected as SVCS. The SVCS were resuspended in erythrocyte lysis buffer (BD Biosciences) and incubated at room temperature for 1 minute. SVCS were plated at a concentration of 650,000 cells/well on cell culture inserts with 1-mm pore size (BD). Each insert was placed in a well of a 12-well tissue culture plate (BD) containing 100 mg of finely minced adipose tissue. To isolate small intact pieces of adipose tissue for culture, perigonadal adipose tissue was remove from high-fat-fed obese C57BL/6J mice and minced to approximately 10-mg size pieces. SVCS were cocultured with adipose tissue pieces for 24 hours in DMEM containing 10% FBS, 1% penicillin, and 2% fatty acid-free BSA. Isoproterenol (Sigma-Aldrich) was added in selected wells at a concentration of 10 mmoles/1. The stromal vascular fraction was collected for gene expression or oil red 0 staining after 24 hours. SVCS were air-dried and fixed with zinc-formalin fixative (see above) for 10 minutes and stained oil red O as previously described (50).
# [4] = test system: bone marrow-derived macrophages (BMDMs); test: Macrophage migration assay with explant-conditioned media; type: cell-based, C57BL/6J mice; details: explant-conditioned medium, isoproterenol-treated explants; comparable to MCP-1/CCL2 (50 ng/ml)
# Text: Murine BMDMs were differentiated in vitro from bone marrow precursor cells. Briefly, bone marrow cells were flushed from femurs and tibias of 9-week-old C57BL/6J mice, washed in DMEM (Invitrogen), and grown for 7 days in Petri dishes containing DMEM with 10% FBS, 20% L929 cell-conditioned media, 5% horse serum, 1% glutamine, and 1% sodium pyruvate. On the seventh day, media were replaced with DMEM containing 10% FBS, 10% L929 cell-conditioned media, 5% horse serum, 1% glutamine, and 1% sodium pyruvate; macrophages were grown for 3 more days. Differentiation was confirmed by FACS analysis. BMDM migration was evaluated using the QCM chemotaxis […] 96-well cell migration assay (Millipore) according to the manufacturer's instructions.
# as §1
Structure (SMILES),"increase of ATM content in perigonadal adipose tissue ([1]; lean C57BL/6J mice, 1 mg/kg intraperitoneally twice 4 hours apart, tissue 14 hours after final injection, vs control-treated mice)","inflammatory phenotype of adipose tissue (expression of inflammatory markers) ([1]; lean mice, CL316,243 vs vehicle, perigonadal adipose tissue)",lipolysis as release of FFA from explants [2],"SVC gene expression or lipid accumulation ([3]; SVCs cultured in the absence of adipose tissue, 24 hours)",lipid accumulation within SVCs (oil red O) ([3]; coculture with adipose tissue plus isoproterenol),Ccr2 gene expression in the SVC fraction ([3]; coculture with adipose tissue plus isoproterenol stimulation),"program of adipocyte differentiation in SVCs (adiponectin, leptin, Pparg expression) ([3]; in the presence of adipose tissue)","Adfp gene expression in SVCs ([3]; in the presence of adipose tissue, 24 hours)","Cd36 expression in SVCs ([3]; in the presence of adipose tissue, P=0.09)",chemotactic activity of adipose tissue toward BMDMs [4]
"C[C@H](Cc1ccc2c(c1)OC(C(=O)[O-])(C(=O)[O-])O2)NC[C@H](O)c1cccc(Cl)c1.[Na+].[Na+] [CL316,243]",more than 5 fold,do not increase the inflammatory phenotype of adipose tissue,–,–,–,–,–,–,–,–
CC(C)NCC(O)c1ccc(O)c(O)c1 (stereo not shown) [isoproterenol],–,–,increased lipolysis,no effect,accumulation of lipid within SVCS,induced Ccr2 gene expression,no activation of a program of adipocyte differentiation,induced the expression of the gene Adfp,increased,proportional increase in the chemotactic activity
